In brackets after ≈: the same amount, converted by molar mass.
Experiments:
Format in all cases: cell-based
[1] = tested on: Brettanomyces sp SUN08; test: Antimicrobial activity (MIC), Brettanomyces sp SUN08; details: potato dextrose broth pH 3.8, visual evaluation; for MIC: read-out: Minimal Inhibitory Concentration (MIC)
[2] = tested on: Saccharomyces cerevisiae SUN06; test: Antimicrobial activity (MIC), Saccharomyces cerevisiae SUN06; details: potato dextrose broth pH 3.8, visual evaluation; for MIC: read-out: Minimal Inhibitory Concentration (MIC)
[3] = tested on: Asaia siamensis SUN03; test: Antimicrobial activity (MIC), Asaia siamensis SUN03; details: potato dextrose broth pH 3.8, visual evaluation; for MIC: read-out: Minimal Inhibitory Concentration (MIC)
[4] = tested on: Byssochlamys nivea SUN10; test: Antimicrobial activity (MIC), Byssochlamys nivea SUN10; details: potato dextrose broth pH 3.8, visual evaluation; for MIC: Paecilomyces niveus, read-out: Minimal Inhibitory Concentration (MIC)
[5] = tested on: Zygosaccharomyces bailli SUN07; test: Antimicrobial activity (MIC), Zygosaccharomyces bailli SUN07; details: potato dextrose broth pH 3.8, visual evaluation; for MIC: read-out: Minimal Inhibitory Concentration (MIC)
[6] = tested on: Neosartorya fischeri SUN09; test: Antimicrobial activity (MIC), Neosartorya fischeri SUN09; details: potato dextrose broth pH 3.8, visual evaluation; for MIC: Aspergillus fischeri, read-out: Minimal Inhibitory Concentration (MIC)
[7] = tested on: Saccharomyces cerevisiae SUN01; test: Antimicrobial activity (MIC), Saccharomyces cerevisiae SUN01; details: potato dextrose broth pH 3.8, visual evaluation; for MIC: read-out: Minimal Inhibitory Concentration (MIC)
[8] = tested on: Penicillium paneum SUN04; test: Antimicrobial activity (MIC), Penicillium paneum SUN04; details: potato dextrose broth pH 3.8, visual evaluation; for MIC: read-out: Minimal Inhibitory Concentration (MIC)
[9] = tested on: Candida parapsilosis SUN05; test: Antimicrobial activity (MIC), Candida parapsilosis SUN05; details: potato dextrose broth pH 3.8, visual evaluation; for MIC: Lodderomyces parapsilosis, read-out: Minimal Inhibitory Concentration (MIC)
[10] = tested on: Zygosaccharomyces bailli SUN02; test: Antimicrobial activity (MIC), Zygosaccharomyces bailli SUN02; details: potato dextrose broth pH 3.8, visual evaluation; for MIC: read-out: Minimal Inhibitory Concentration (MIC)
[11] = tested on: Leuconostoc mesenteroides DSM 20343; test: Antimicrobial activity (MIC), Leuconostoc mesenteroides DSM 20343; details: DSM20343, potato dextrose broth pH 3.8, visual evaluation, read-out: Minimal Inhibitory Concentration (MIC)
[12] = tested on: Yarrowia lipolytica DSM 70561; test: Antimicrobial activity (MIC), Yarrowia lipolytica DSM 70561; details: DSM70561, potato dextrose broth pH 3.8, visual evaluation, read-out: Minimal Inhibitory Concentration (MIC)
[13] = tested on: Lactobacillus paracasei ssp. paracasei DSM 46331; test: Antimicrobial activity (MIC), Lactobacillus paracasei ssp. paracasei DSM 46331; details: Lacticaseibacillus paracasei, DSM46331, potato dextrose broth pH 3.8, visual evaluation, read-out: Minimal Inhibitory Concentration (MIC)
[14] = tested on: Penicillium expansum DSM 62841; test: Antimicrobial activity (MIC), Penicillium expansum DSM 62841; details: DSM62841, potato dextrose broth pH 3.8, visual evaluation, read-out: Minimal Inhibitory Concentration (MIC)
[15] = tested on: Clostridium sporogenes ATCC19404; test: Antimicrobial activity (MIC), Clostridium sporogenes ATCC19404; details: potato dextrose broth pH 3.8, visual evaluation, read-out: Minimal Inhibitory Concentration (MIC)
Method: Compounds are dissolved at a concentration of 20 mg/mL using 100% DMSO. • Preculture: yeast and bacteria are plated on potato dextrose agar, resuspended in potato dextrose broth and CFU via OD measurement determined; adjusting CFU of the strain in PDB pH 3.8 • Preculture: for mycel forming fungi spores were directly used after thawing of cryopreserved stocks of known titre • Final titre used for the assay: Yeast strains 5*10^3 CFU/ml, Bacteria 1*10^6 CFU/ml, Fungi (spores) 5*10^4 CFU/ml • Potato dextrose broth pH 3.8 was used as assay matrix • 500 ppm (0.05%) of the compounds were screened (final DMSO 2.5% (v/v)) • Volume: 100 μl in 96-well format • Positive controls: potassium sorbate, sodium benzoate & triclosan • 28° C. to 30° C., static incubation • Incubation time depending on spoilage organism between 2 and 8 days • Visual evaluation (per eye, for fungi with binocular magnification)

[16] = tested on: Byssochlamys fulva DSM 1808; test: Antimicrobial activity (MIC), Byssochlamys fulva DSM 1808; details: Paecilomyces fulvus, DSM1808, potato dextrose broth pH 3.8, visual evaluation, read-out: Minimal Inhibitory Concentration (MIC)
[17] = tested on: Saccharomyces cerevisiae DSM 2548; test: Antimicrobial activity (MIC), Saccharomyces cerevisiae DSM 2548; details: DSM2548, potato dextrose broth pH 3.8, visual evaluation, read-out: Minimal Inhibitory Concentration (MIC)
[18] = tested on: Zygosaccharomyces bailii DSM 70834; test: Antimicrobial activity (MIC), Zygosaccharomyces bailii DSM 70834; details: DSM70834, potato dextrose broth pH 3.8, visual evaluation, read-out: Minimal Inhibitory Concentration (MIC)
[19] = tested on: Leuconostoc lactis DSM 20202; test: Antimicrobial activity (MIC), Leuconostoc lactis DSM 20202; details: DSM20202, potato dextrose broth pH 3.8, visual evaluation, read-out: Minimal Inhibitory Concentration (MIC)
[20] = tested on: Malassezia furfur DSM 6170; test: Antimicrobial activity (MIC), Malassezia furfur DSM 6170; details: DSM6170, potato dextrose broth pH 3.8, visual evaluation, read-out: Minimal Inhibitory Concentration (MIC)
[21] = tested on: Zygosaccharomyces rouxii DSM 7525; test: Antimicrobial activity (MIC), Zygosaccharomyces rouxii DSM 7525; details: DSM7525, potato dextrose broth pH 3.8, visual evaluation, read-out: Minimal Inhibitory Concentration (MIC)
[22] = tested on: Dekkera naardenensis CBS 6115; test: Antimicrobial activity (MIC), Dekkera naardenensis CBS 6115; details: Brettanomyces naardenensis, CBS6115, potato dextrose broth pH 3.8, visual evaluation, read-out: Minimal Inhibitory Concentration (MIC)
[23] = tested on: Bacillus subtilis ATCC 6633; test: Antimicrobial activity (MIC), Bacillus subtilis ATCC 6633; details: ATCC6633, potato dextrose broth pH 3.8, visual evaluation, read-out: Minimal Inhibitory Concentration (MIC)
[24] = tested on: Alicyclobacillus acidoterrestris DSM 2498; test: Antimicrobial activity (MIC), Alicyclobacillus acidoterrestris DSM 2498; details: DSM2498, potato dextrose broth pH 3.8, visual evaluation, read-out: Minimal Inhibitory Concentration (MIC)
[25] = tested on: Candida albicans ATCC10231; test: Antimicrobial activity (MIC), Candida albicans ATCC10231; details: potato dextrose broth pH 3.8, visual evaluation, read-out: Minimal Inhibitory Concentration (MIC)
[26] = tested on: Corynebacterium xerosis DSM 20743; test: Antimicrobial activity (MIC), Corynebacterium xerosis DSM 20743; details: DSM20743, potato dextrose broth pH 3.8, visual evaluation, read-out: Minimal Inhibitory Concentration (MIC)
[27] = tested on: Enterococcus faecalis ATCC 7080; test: Antimicrobial activity (MIC), Enterococcus faecalis ATCC 7080; details: ATCC7080, potato dextrose broth pH 3.8, visual evaluation, read-out: Minimal Inhibitory Concentration (MIC)

SMILES	Minimal Inhibitory Concentration (MIC) [1]	Minimal Inhibitory Concentration (MIC) [2]	Minimal Inhibitory Concentration (MIC) [3]	Minimal Inhibitory Concentration (MIC) [4]	MIC [5]	Minimal Inhibitory Concentration (MIC) [6]	MIC [7]	Minimal Inhibitory Concentration (MIC) [8]	Minimal Inhibitory Concentration (MIC) [9]	MIC [10]	MIC [2]	Minimal Inhibitory Concentration (MIC) [7]	Minimal Inhibitory Concentration (MIC) [10]	MIC [6]	MIC [8]	MIC [1]	MIC [3]	MIC [4]	MIC [9]	MIC [24]	other results
O=C(O)OC[C@H]1O[C@@H](OCC(O)CCCCCCCCCCCCC(O)C(=O)O)[C@H](O)[C@@H](O)[C@@H]1O[C@@H]1O[C@H](CO)[C@@H](O)[C@H](OC(=O)CC(O)CCO)[C@H]1O (stereo partly drawn) [NP-018249]	inact.	inact.	inact.	inact.	500 µg/mL (≈ 634 µM)	inact.	500 µg/mL (≈ 634 µM)	inact.	inact.	500 µg/mL (≈ 634 µM)	–	–	–	–	–	–	–	–	–	–	–
CCCCCC(O)CC(=O)O[C@@H]1[C@@H](O)[C@H](O[C@H]2[C@H](O)[C@@H](O)[C@H](OCC(O)CCCCCCCCCCCCC(O)C(=O)O)O[C@@H]2COC(C)=O)O[C@H](CO)[C@H]1O (stereo partly drawn) [NP-018218]	inact.	–	inact.	inact.	–	inact.	–	inact.	inact.	–	500 µg/mL (≈ 615 µM)	inact.	inact.	–	–	–	–	–	–	–	Minimal Inhibitory Concentration (MIC) [5]: inact.
CCCC(O)CC(=O)OC[C@H]1O[C@@H](O[C@H]2[C@H](O)[C@@H](O)[C@H](OCC(O)CCCCCCCCCCCCC(O)C(=O)O)O[C@@H]2COC(C)=O)[C@H](O)[C@@H](O)[C@@H]1O (stereo partly drawn) [NP-018459]	inact.	inact.	inact.	inact.	500 µg/mL (≈ 637 µM)	–	–	–	inact.	–	–	inact.	inact.	500 µg/mL (≈ 637 µM)	500 µg/mL (≈ 637 µM)	–	–	–	–	–	–
CCCC(O)CC(=O)O[C@H]1[C@H](O[C@H]2[C@H](O)[C@@H](O)[C@H](OCC(O)CCCCCCCCCCCCC(O)C(=O)O)O[C@@H]2COC(C)=O)O[C@H](CO)[C@@H](O)[C@@H]1O (stereo partly drawn) [NP-018217]	–	–	–	–	500 µg/mL (≈ 637 µM)	–	≤ 125 µg/mL	–	–	≤ 125 µg/mL	≤ 125 µg/mL	–	–	≤ 31.2 µg/mL	≤ 31.2 µg/mL	≤ 125 µg/mL	500 µg/mL (≈ 637 µM)	≤ 31.2 µg/mL	≤ 125 µg/mL	240 µg/mL (≈ 306 µM)	MIC [11]: 240 µg/mL (≈ 306 µM); MIC [12]: 240 µg/mL (≈ 306 µM); MIC [13]: 80 µg/mL (≈ 102 µM); MIC [14]: 240 µg/mL (≈ 306 µM); MIC [15]: 80 µg/mL (≈ 102 µM); MIC [16]: 80 µg/mL (≈ 102 µM); MIC [17]: 240 µg/mL (≈ 306 µM); MIC [18]: 80 µg/mL (≈ 102 µM); MIC [19]: 250 µg/mL (≈ 319 µM); MIC [20]: 80 µg/mL (≈ 102 µM); MIC [21]: 240 µg/mL (≈ 306 µM); MIC [22]: 240 µg/mL (≈ 306 µM); MIC [23]: 600 µg/mL (≈ 764 µM); MIC [25]: 80 µg/mL (≈ 102 µM); MIC [26]: 240 µg/mL (≈ 306 µM); MIC [27]: 240 µg/mL (≈ 306 µM)
O=C(O)OC[C@H]1O[C@@H](OCC(O)CCCCCCCCCCC/C=C(\O)C(=O)O)[C@H](O)[C@@H](O)[C@@H]1O[C@@H]1O[C@H](CO)[C@@H](O)[C@H](O)[C@H]1OC(=O)CC(O)CCO (stereo partly drawn) [NP-018756]	–	–	–	–	250 µg/mL (≈ 318 µM)	–	250 µg/mL (≈ 318 µM)	–	–	250 µg/mL (≈ 318 µM)	250 µg/mL (≈ 318 µM)	–	–	≤ 125 µg/mL	250 µg/mL (≈ 318 µM)	250 µg/mL (≈ 318 µM)	> 500 µg/mL	≤ 125 µg/mL	500 µg/mL (≈ 635 µM)	16 µg/mL (≈ 20.3 µM)	MIC [19]: 600 µg/mL (≈ 763 µM); MIC [23]: 600 µg/mL (≈ 763 µM)
CCCCCCCC(=O)O[C@H]1[C@H](O[C@H]2[C@H](O)[C@@H](O)[C@H](OCC(O)CCCCCCCCCCCCC(O)C(=O)O)O[C@@H]2COC(C)=O)O[C@H](CO)[C@@H](O)[C@@H]1O (stereo partly drawn) [NP-018753]	–	–	–	–	≤ 31.2 µg/mL	–	≤ 31.2 µg/mL	–	–	≤ 31.2 µg/mL	≤ 31.2 µg/mL	–	–	≤ 31.2 µg/mL	500 µg/mL (≈ 627 µM)	500 µg/mL (≈ 627 µM)	> 500 µg/mL	≤ 31.2 µg/mL	≤ 31.2 µg/mL	–	–
O=C(O)OC[C@H]1O[C@@H](OCC(O)CCCCCCCCCCCCC(O)C(=O)O)[C@H](O)[C@@H](O)[C@@H]1O[C@@H]1O[C@H](CO)[C@@H](O)[C@H](O)[C@H]1O (stereo partly drawn) [NP-018243]	–	–	inact.	–	250 µg/mL (≈ 372 µM)	–	250 µg/mL (≈ 372 µM)	–	–	250 µg/mL (≈ 372 µM)	250 µg/mL (≈ 372 µM)	–	–	≤ 125 µg/mL	≤ 125 µg/mL	250 µg/mL (≈ 372 µM)	–	250 µg/mL (≈ 372 µM)	500 µg/mL (≈ 743 µM)	–	–
CCCCCC(O)CC(=O)O[C@H]1[C@H](O[C@H]2[C@H](O)[C@@H](O)[C@H](OCC(O)CCCCCCCCCCCCCC(=O)O)O[C@@H]2COC(C)=O)O[C@H](CO)[C@@H](O)[C@@H]1O (stereo partly drawn) [NP-018752]	inact.	–	inact.	–	500 µg/mL (≈ 627 µM)	inact.	–	inact.	inact.	500 µg/mL (≈ 627 µM)	500 µg/mL (≈ 627 µM)	inact.	–	–	–	–	–	500 µg/mL (≈ 627 µM)	–	4 µg/mL (≈ 5.02 µM)	–
O=C(O)CC(O)CCCCCCCCCCCC(O)CO[C@@H]1O[C@H](COC(=O)O)[C@@H](O[C@@H]2O[C@H](CO)[C@@H](O)[C@H](O)[C@H]2O)[C@H](O)[C@H]1O (stereo partly drawn) [NP-018428]	inact.	inact.	inact.	inact.	–	–	–	inact.	inact.	–	–	inact.	inact.	500 µg/mL (≈ 743 µM)	–	–	–	–	–	–	Minimal Inhibitory Concentration (MIC) [5]: inact.
